{"source": "patent US20240148757A1", "about": "“USE OF DIHYDROOROTATE DEHYDROGENASE (DHODH) INHIBITORS TO TARGET FERROPTOSIS IN CANCER THERAPY” (BOARD OF REGENTS, THE UNIVERSITY OF TEXAS SYSTEM, priority 2021, published 2024)", "key": {"[1]": {"tested_on": "HT-1080 cells", "assay": "Metabolic tracer analysis of pyrimidine synthesis (amide-15N-glutamine)", "format": "cell-based, human", "conditions": "Lip-1 10 μM", "experimental": "Metabolomic analysis was performed as previously described (Liu, X., et al., Nat Cell Biol 22, 476-486 (2020)). Cells were seeded on 35 mm culture plates at a density sufficient to ensure approximately 70-80% confluence at the time of extraction. For metabolic tracer analysis of pyrimidine synthesis, HT-1080 cells were treated with RSL3 and/or Lip-1 for 2 hours and then were shifted to drug-free media containing amide-^15N-glutamine (this time point is defined as 0 hour). Metabolites were extracted at the indicated time points for subsequent analyses. Metabolites were extracted by rapidly aspirating the culture medium and then adding 0.6 mL of an 80% methanol: 20% water mixture at dry ice temperature. The plates were incubated on dry ice for 15 minutes before the cell material was scraped into eppendorf tubes pre-chilled on ice. The cell debris was pelleted by centrifugation at 13,000 RCF for 5 minutes at 4° C. and the supernatant was transferred to a fresh tube and stored on dry ice until analysis. […]\nThe complete platform consists of an Accela 1250 HPLC system, Accela Open Autosampler, MayLab Mistraswitch column oven and Exactive orbitrap mass spectrometer, controlled by the Xcalibur 3.0.63 software package. […] The data were analyzed using the MAVEN software suite57 with signal intensity determined as the Peak Area (Top). […]"}, "[2]": {"tested_on": "GPX4^low NCI-H226 cells", "assay": "Cell viability / cell death (ferroptosis) in NCI-H226 cells", "format": "cell-based, human", "conditions": "BQR; pretreatment Lip-1 or ZVF 10 μM, 24 hours", "experimental": "Viable cells were measured using Cell Counting Kit-8 (CCK-8, Dojindo) as previously described (Koppula, P., Zhang, Y., Shi, J., Li, W. & Gan, B, J Biol Chem 292, 14240-14249 (2017); Liu, X. & Gan, B, Cell Cycle 15, 3471-3481 (2016)). Briefly, cells were seeded onto 96-well plates at a density of 2×10^4 per well. The next day, cells were treated with GPX4 or DHODH inhibitors for 4 hours. Subsequently, cells exposed to 10 μl CCK-8 reagent (100 μl medium per well) for 1 hour at 37° C., 5% CO2 in an incubator. The absorbance at a wavelength of 450 nm was determined using a FLUOstar Omega microplate reader (BMG Labtech).\nCell death was measured by propidium iodide (Roche) staining using a flow cytometer, as previously described (Dai, F., et al., Proc Natl Acad Sci USA 114, 3192-3197 (2017); Zhang, Y., et al., Cancer Res 80, 2243-2256 (2020)). For propidium iodide-staining, cells were seeded at a density of 50% confluence into 12-well plates. The next day, cells were treated with different reagents. To measure cell death, the cells were collected (including floating dead cells), stained with 5 μg/ml propidium iodide and the percentage of the propidium iodide-positive dead cell population was analyzed using the flow cytometer BD Accuri C6 (BD Biosciences) and an FL2 detector. A minimum of 10,000 single cells were analyzed per well and all experiments were carried out at least in triplicate."}, "[3]": {"tested_on": "DHODH KO HT-1080 cells", "assay": "Mitochondrial lipid peroxidation (mito-BODIPY) in DHODH KO HT-1080 cells", "format": "cell-based, human", "conditions": "pretreatment 10 μM, 24 hours"}, "[4]": {"tested_on": "GPX4-knockdown tumors", "assay": "GPX4-knockdown HT-1080 xenograft model", "format": "in vivo, athymic nude mice", "conditions": "liproxstatin-1 10 mg/kg intraperitoneally daily", "experimental": "Fresh tumor tissues were fixed in 10% neutral buffered formalin overnight, washed once with PBS, and stored in 70% ethanol at 4° C. The tissues were dehydrated and embedded in paraffin by the Research Histology Core Laboratory (MD Anderson Cancer Center) according to standard protocols. Embedded tissues were sectioned at a thickness of 5 μm for H&E or immunohistochemistry (IHC) analysis. IHC analysis was performed as previously described (Gan, B., et al., Cancer Cell 18, 472-484 (2010); Gan, B., et al., J Cell Biol 175, 121-133 (2006)). Briefly, the primary antibodies, including ki-67 (1:500, 9027s, Cell Signaling Technology), cleaved-caspase 3 (1:500, 9661s, Cell Signaling Technology), or 4-HNE (1:400, ab46545, Abcam) were incubated overnight at 4° C. Staining was performed using the Vectastain elite ABC kit and DAB peroxidase substrate kit (Vector laboratories). Images were randomly taken from the […] (five images per tumor) at ×200 magnification using an Olympus BX43 microscope. All the xenograft experiments were performed in accordance with a protocol approved by the Institutional Animal Care and Use Committee and Institutional Review Board at The University of Texas MD Anderson Cancer Center. The study is compliant with all relevant ethical regulations regarding animal research. Female 4- to 6-week-old athymic nude mice (Foxn1^nu/Foxn1^nu) were purchased from the Experimental Radiation Oncology Breeding Core Facility at MD Anderson Cancer Center and housed in the Animal Care Facility at the Department of Veterinary Medicine and Surgery at MD Anderson. Cancer cell lines were suspended and counted in cold phosphate-buffered saline (PBS), and 5×10^6 HT-1080 or 1×10^7 NCI-H226 cells were injected into mice subcutaneously. When the tumor reached 50-100 mm^3, the mice were assigned randomly into different treatment groups. Brequinar or sulfasalazine was dissolved in dimethyl sulfoxide (DMSO) and diluted in PBS. Brequinar was intraperitoneally injected into mice at a dose of 30 mg/kg every three days. Sulfasalazine was intraperitoneally injected daily at a dose of 100 mg/kg. Liproxstatin-1 diluted in PBS was intraperitoneally injected daily at a dose of 10 mg/kg. The daily injection of brequinar, sulfasalazine, or liproxstatin-1 was continued until the endpoint as indicated in the corresponding figures. The tumor volume was measured every 3 days until the endpoint and calculated according to the equation volume=length×width^2×½."}}, "data": [{"smiles": "Clc1cccc(CN=C2Nc3ccccc3NC23CCNCC3)c1", "note": "[liproxstatin-1]", "values": [{"measurement": "rescue of RSL3-induced increase of 15N-UMP levels", "setting": "[1]", "result": "completely rescued"}, {"measurement": "rescue of DHODH inhibition-induced cell death", "setting": "[2]", "result": "largely rescued"}, {"measurement": "suppression of GPX4 inhibitor-induced mitochondrial lipid peroxidation", "setting": "[3]", "result": "could be suppressed"}, {"measurement": "restoration of tumor growth under brequinar treatment", "setting": "[4]", "result": "largely restored the growth"}]}]}
